Set-up: species or system WISTAR rats
Conditions: rat, in vivo, sc, 25 ug
From the text: Hydrogels were suspended (ca. 6% wt/v) PBST buffer at pH 7.4. […] Blood samples were withdrawn and used for plasma generation over the course of 28 d. […] Plasma concentration profiles were generated and analyzed with Phoenix WinNonlin software (Certara, Princeton, N.J., USA).

Resiquimod [Compound 4]
t1/2 (biphasic), first phase: 1.5 h | t1/2 (biphasic), second phase: 10 h

Reference: patent US20220054478A1, “MINIMIZATION OF SYSTEMIC INFLAMMATION” (Ascendis Pharma Oncology Division A/S, priority 2019, published 2022)
